# Data: patent publication US20230203043A1, “NOVEL IMIDAZOPYRAZINE DERIVATIVES” (Hoffmann-La Roche Inc., priority 2020, published 2023)
# Where a name gives a salt, the structure may show the parent alone. Read-outs that look alike come from different tables or passages of the source.
# Tested on: Acinetobacter baumannii ATCC17961
# Assay: Antimicrobial susceptibility testing: 90% growth inhibitory concentration (IC90) determination in Iso-Sensitest broth, OD600 growth
# Type: cell-based
# In short: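 OD600 read every 20 min for 16 h at 35±2° C; inhibition taken in log phase to derive IC90. Twofold, 10-point dilutions (e.g. 50–0.097 μM final), inoculum ~5×10^(5) CFU/ml.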
# [1] = Acinetobacter baumannii, ATCC17961, 16 h, strain ATCC 17961, OD600 growth over 16 h, read-out: A. baumannii ATCC 17961 IC90
# [2] = strain ATCC 17961, OD600 growth over 16 h, read-out: A. baumannii ATCC 17961 IC90
# [3] = Acinetobacter baumannii, ATCC17961, 16 h, read-out: A. baumannii ATCC 17961 IC90 (uM), strain ATCC 17961, OD600 growth over 16 h
IC90 [1],Compound,IC90 [3],other results
0.408 µM,"C[C@@H](NC(=O)c1ccc(Nc2nccn3c(-c4cn(CC#N)nc4C(F)(F)F)cnc23)cc1Cl)C(=O)N[C@H]1CCNC1 [Example 710, 2-chloro-4-[[3-[1-(cyanomethyl)-3-(trifluoromethyl)pyrazol-4-yl]imidazo[1,2-a]pyrazin-8-yl]amino]-N-[(1R)-1-methyl-2-oxo-2-[[(3S)-pyrrolidin-3-yl]amino]ethyl] benzamide formate]",–,–
0.183 µM,"CCc1cc(Nc2nccn3c(-c4cn(CC(F)F)nc4C(F)(F)F)cnc23)ccc1C(=O)NCCNC(=O)[C@@H]1CC[C@H](N)C1 [Example 497, N-(2-((1R,3S)-3-aminocyclopentane-1-carboxamido)ethyl)-4-((3-(1-(2,2-difluoroethyl)-3-(trifluoromethyl)-1H-pyrazol-4-yl)imidazo[1,2-a]pyrazin-8-yl)amino)-2-ethylbenzamide formate]",–,–
–,"C[C@H](O)CNC(=O)c1ccc(Nc2nccn3c(-c4cn(CC#N)nc4C(F)(F)F)cnc23)cc1Cl [Example 240, 2-chloro-4-[[3-[1-(cyanomethyl)-3-(trifluoromethyl)pyrazol-4-yl]imidazo[1,2-a]pyrazin-8-yl]amino]-N-[(2S)-2-hydroxypropyl] benzamide]",–,IC90 [2]: 0.253 µM
–,"CCc1cc(Nc2nccn3c(-c4cn(CC(O)CCO)nc4C(F)(F)F)cnc23)ccc1C(=O)NCCOCCN (stereo not shown) [Example 315, N-[2-(2-aminoethoxy)ethyl]-4-[[3-[1-(2,4-dihydroxybutyl)-3-(trifluoromethyl)pyrazol-4-yl]imidazo[1,2-a]pyrazin-8-yl]amino]-2-ethylbenzamide formate]",1.46 µM,–
0.546 µM,"CCc1cc(Nc2nccn3c(-c4cn(CCCC#N)nc4C(F)(F)F)cnc23)ccc1C(=O)NC [Example 343, 4-[[3-[1-(3-cyanopropyl)-3-(trifluoromethyl)pyrazol-4-yl]imidazo[1,2-a]pyrazin-8-yl]amino]-2-ethyl-N-methylbenzamide]",–,–
–,"NC1CCC(NC(=O)c2ccc(Nc3nccn4c(-c5c[nH]nc5C(F)(F)F)cnc34)cc2Cl)CC1 (stereo not shown) [Example 405, N-(4-aminocyclohexyl)-2-chloro-4-[[3-[3-(trifluoromethyl)-1H-pyrazol-4-yl]imidazo[1,2-a]pyrazin-8-yl]amino]benzamide]",–,IC90 [2]: 1.3 µM
–,"CCc1cc(Nc2nccn3c(-c4cn(CC#N)nc4C(F)(F)F)cnc23)ccc1C(=O)NCC(=O)NC1CC(N)C1 (stereo not shown) [Example 675, N-[2-[(3-aminocyclobutyl)amino]-2-oxo-ethyl]-4-[[3-[1-(cyanomethyl)-3-(trifluoromethyl)pyrazol-4-yl]imidazo[1,2-a]pyrazin-8-yl]amino]-2-ethyl-benzamide formate]",0.315 µM,–
2.78 µM,"CCc1cc(Nc2nccn3c(-c4cn(CC#N)nc4C(F)F)cnc23)ccc1C(=O)N1CCN(C(=O)[C@H]2C[C@H](N)C2)CC1 [Example 800, 2-(4-(8-((4-(4-((1r,3r)-3-aminocyclobutane-1-carbonyl)piperazine-1-carbonyl)-3-ethylphenyl)amino)imidazo[1,2-a]pyrazin-3-yl)-3-(difluoromethyl)-1H-pyrazol-1-yl)acetonitrile]",–,–
–,"CCc1cc(Nc2nccn3c(-c4cn(C5CC(F)(F)C5)nc4C(F)(F)F)cnc23)ccc1C(=O)NCCOCCCN [Example 670, N-(2-(3-aminopropoxy)ethyl)-4-((3-(1-(3,3-difluorocyclobutyl)-3-(trifluoromethyl)-1H-pyrazol-4-yl)imidazo[1,2-a]pyrazin-8-yl)amino)-2-ethylbenzamide formate]",0.304 µM,–
–,"CCc1cc(Nc2nccn3c(-c4cn(CC(F)F)nc4C(F)(F)F)cnc23)ccc1C(=O)NCC(=O)NCC1(O)CNC1 [Example 546, 4-[[3-[1-(2,2-difluoroethyl)-3-(trifluoromethyl)pyrazol-4-yl]imidazo[1,2-a]pyrazin-8-yl]amino]-2-ethyl-N-[2-[(3-hydroxyazetidin-3-yl)methylamino]-2-oxo-ethyl]benzamide formate]",0.298 µM,–
–,"C=CCn1cc(-c2cnc3c(Nc4ccc(C(=O)NCCOCCN)c(CC)c4)nccn23)c(C(F)(F)F)n1 [Example 272, N-[2-(2-aminoethoxy)ethyl]-2-ethyl-4-[[3-[1-prop-2-enyl-3-(trifluoromethyl)pyrazol-4-yl]imidazo[1,2-a]pyrazin-8-yl]amino]benzamide formate]",0.085 µM,–
0.24 µM,"CCc1cc(Nc2nccn3c(-c4cn(CC(O)C(F)(F)F)nc4C(F)(F)F)cnc23)ccc1C(=O)NCCOCCN (stereo not shown) [Example 644, N-(2-(2-aminoethoxy)ethyl)-2-ethyl-4-((3-(1-(3,3,3-trifluoro-2-hydroxypropyl)-3-(trifluoromethyl)-1H-pyrazol-4-yl)imidazo [1,2-a]pyrazin-8-yl)amino) benzamide]",–,–
–,"C=C(Cl)C(C)n1cc(-c2cnc3c(Nc4ccc(C(=O)NCCOCCN)c(CC)c4)nccn23)c(C(F)(F)F)n1 (stereo not shown) [Example 275, N-[2-(2-aminoethoxy)ethyl]-4-[[3-[1-(3-chlorobut-3-en-2-yl)-3-(trifluoromethyl)pyrazol-4-yl]imidazo[1,2-a]pyrazin-8-yl]amino]-2-ethylbenzamide formate]",0.169 µM,–
–,"CCc1cc(Nc2nccn3c(-c4cn(CC(F)F)nc4C(F)(F)F)cnc23)ccc1C(=O)NCCNC(=O)CN [Example 611, N-(2-(2-aminoacetamido)ethyl)-4-((3-(1-(2,2-difluoroethyl)-3-(trifluoromethyl)-1H-pyrazol-4-yl)imidazo[1,2-a]pyrazin-8-yl)amino)-2-ethylbenzamide formate]",0.11 µM,–
–,"CCc1cc(Nc2nccn3c(-c4cn(CC#N)nc4C(F)(F)F)cnc23)ccc1C(=O)NCCOCCN [Example 29, N-[2-(2-aminoethoxy)ethyl]-4-[[3-[1-(cyanomethyl)-3-(trifluoromethyl)pyrazol-4-yl]imidazo[1,2-a]pyrazin-8-yl]amino]-2-ethylbenzamide formate]",0.107 µM,–
1.03 µM,"CCc1cc(Nc2nccn3c(-c4cn(CCF)nc4C(F)F)cnc23)ccc1C(=O)N1CCN(C(=O)[C@H](C)N)CC1 [Example 779, (S)-2-amino-1-(4-(4-((3-(3-(difluoromethyl)-1-(2-fluoroethyl)-1H-pyrazol-4-yl)imidazo[1,2-a]pyrazin-8-yl)amino)-2-ethylbenzoyl)piperazin-1-yl)propan-1-one]",–,–
–,"N#CCn1cc(-c2cnc3c(Nc4ccc(C(=O)NCC(=O)NCCN)c(Cl)c4)nccn23)c(C(F)(F)F)n1 [Example 119, N-[2-(2-aminoethylamino)-2-oxoethyl]-2-chloro-4-[[3-[1-(cyanomethyl)-3-(trifluoromethyl)pyrazol-4-yl]imidazo[1,2-a]pyrazin-8-yl]amino]benzamide formate]",0.476 µM,–
0.555 µM,"N#CCn1cc(-c2cnc3c(Nc4ccc(C(=O)N5CCC(NC(=O)[C@@H]6C[C@@H](O)CN6)CC5)c(Cl)c4)nccn23)c(C(F)(F)F)n1 [Example 143, (2S,4R)-N-[1-[2-chloro-4-[[3-[1-(cyanomethyl)-3-(trifluoromethyl)pyrazol-4-yl]imidazo[1,2-a]pyrazin-8-yl]amino]benzoyl]piperidin-4-yl]-4-hydroxypyrrolidine-2-carboxamide]",–,–
–,"CNC(=O)c1ccc(Nc2nccn3c(-c4cn(CCCc5ccc(CN)cc5)nc4C(F)(F)F)cnc23)cc1Cl [Example 594, 4-((3-(1-(3-(4-(aminomethyl)phenyl)propyl)-3-(trifluoromethyl)-1H-pyrazol-4-yl)imidazo[1,2-a]pyrazin-8-yl)amino)-2-chloro-N-methylbenzamide formate]",0.164 µM,–
0.109 µM,"O=C(c1ccc(Nc2nccn3c(-c4cn(CC(F)F)nc4C(F)(F)F)cnc23)cc1Cl)N1CCNCC1 [Example 120, [2-chloro-4-[[3-[1-(2,2-difluoroethyl)-3-(trifluoromethyl)pyrazol-4-yl]imidazo[1,2-a]pyrazin-8-yl]amino]phenyl]-piperazin-1-ylmethanone]",–,–
0.201 µM,"C=CCn1cc(-c2cnc3c(Nc4ccc(C(=O)NCCOCCN)c(CC)c4)nccn23)c(C(F)F)n1 [Example 121, N-[2-(2-aminoethoxy)ethyl]-4-[[3-[3-(difluoromethyl)-1-prop-2-enylpyrazol-4-yl]imidazo[1,2-a]pyrazin-8-yl]amino]-2-ethylbenzamide]",–,–
1.42 µM,"Cc1cc(Nc2nccn3c(-c4c[nH]nc4C(F)(F)F)cnc23)ccc1C(=O)N1CCN(C(=O)[C@@H]2CNCC[C@H]2O)CC1 (racemic) [Example 467, [2-methyl-4-[[3-[3-(trifluoromethyl)-1H-pyrazol-4-yl]imidazo[1,2-a]pyrazin-8-yl]amino]phenyl]-[4-[rac-(3R,4R)-4-hydroxypiperidine-3-carbonyl]piperazin-1-yl]methanone hydrochloride]",–,–
0.433 µM,"C=CCn1cc(-c2cnc3c(Nc4cc(C)c(C(=O)N5CCNCC5)c(F)c4)nccn23)c(C(F)(F)F)n1 [Example 69, [2-fluoro-6-methyl-4-[[3-[1-prop-2-enyl-3-(trifluoromethyl)pyrazol-4-yl]imidazo[1,2-a]pyrazin-8-yl]amino]phenyl]-piperazin-1-ylmethanone]",–,–
–,"C[C@@H](NC(=O)c1ccc(Nc2nccn3c(-c4c[nH]nc4C(F)(F)F)cnc23)cc1Cl)C(=O)N1CC[C@H](N)C1 [Example 94, N-[(2R)-1-[(3S)-3-aminopyrrolidin-1-yl]-1-oxopropan-2-yl]-2-chloro-4-[[3-[3-(trifluoromethyl)-1H-pyrazol-4-yl]imidazo[1,2-a]pyrazin-8-yl]amino]benzamide formate]",1.24 µM,–
–,"CCc1cc(Nc2nccn3c(-c4cn(CC#N)nc4C(F)(F)F)cnc23)ccc1C(=O)NCC(=O)N1CCCC1CN (stereo not shown) [Example 510, N-[2-[2-(aminomethyl)pyrrolidin-1-yl]-2-oxo-ethyl]-4-[[3-[1-(cyanomethyl)-3-(trifluoromethyl)pyrazol-4-yl]imidazo[1,2-a]pyrazin-8-yl]amino]-2-ethyl-benzamide formate]",0.347 µM,–
